# Results as given in US6447801B1, “Anti-parasitic action of N,N-diethyl-m-toluamide (deet) and formulations that prolong its activity in the skin” (priority 1997, dated 2002).
# How the values were obtained:
# [1] = system: cercariae of Schistosoma mansoni; test: In vitro effects of DEET on S. mansoni cercariae (viability by neutral red); assay type: cell-based
# Method: FIG. 1 illustrates the in vitro effects of DEET on S. mansoni cercariae. In vitro effects of DEET on cercariae of Schistosoma mansoni. Cercariae were placed in 96 well titre plates coated previously with a serial doubling dilutions of DEET ranging from 30% to 0.24%. At different time periods after exposure to DEET, the percent viability of cercariae was evaluated by neutral red exclusion method. The experiment was repeated 17 times with an “n” of 189 to 440 cercariae for each treatment.
# Based on the foregoing observations, DEET was tested for its effects on S. mansoni cercariae. DEET is commercially available and was purchased from Fluka Chemicals Corp. (Ronkonkoma, N.Y.). For in vitro studies, serial doubling dilutions of DEET ranging from 30% to 0.24% were prepared in isopropanol(Sigma, St. Louis, Mo.) and 50 μl of each dilution was transferred to individual wells of a 96 well flat bottom micro titre plate (Costar, Cambridge, Mass.). Control wells received 50 μl of isopropanol each. The plates were then kept covered in a fume hood and the fluid was allowed to evaporate overnight. The following day approximately 50 cercariae of S. mansoni suspended in 50 μl of RPMI-1640 media (pH 7.4; Gibco BRL) or phosphate buffered saline (PBS, pH 7.0) was placed in each well and the viability of the cercariae were monitored at 30 min, 60 min, and 4 hrs. A total of 17 replicas were performed for each dilution and for each time point in any one given experiment. To determine the viability of cercariae, 10 μl of a 0.05% Neutral Red (Sigma Chemical Co.) was added to each well at the end of the experiment and the percentage of live and dead cercariae was determined as described in He et al., Acta Zoologica Sinica, 31:240-245 (1985).
# cercariae of S. mansoni = test: Effect of DEET on the morphology of cercariae (transmission electron microscopy); assay type: cell-based, Schistosoma mansoni
# Method: Effect of DEET on cercarial morphology was evaluated by transmission electron microscopic studies. In these experiments, approximately 300-500 cercariae of S. mansoni suspended in 100 μl of PBS were placed in each well of a 96 well plate coated with varying concentrations of DEET (ranging from 7.5%-40%) or isopropanol (control) as described above. Samples were collected at 5, 10, 20, 30 and 240 minutes after exposure to DEET and processed for transmission electron microscopy as described in Salafsky et al., Exper. Parasitol., 67:116-127 (1988). Briefly, cercariae collected from each tube were transferred to fresh tubes containing PBS plus 10% fetal bovine serum (Sigma Chemical Co.) and concentrated into a pellet by centrifugation at 500 rpm (300 g) for 5 minutes. The pellet was then fixed overnight at 4° C. in a fixative containing 3% gluteraldehyde, and 1% formaldehyde in a 0.1 M phosphate buffer (pH 7.2). After one hour post fixation in 1% osmium tetroxide the pellet were dehydrated through a graded acetone series and embedded in epon resin. Sections were examined in a Hitachi H-500 transmission electron microscope after staining with uranyl acetate and lead citrate.
# [2] = Absorption through skin: DEET level in plasma by HPLC; assay type: in vivo, mice; conditions: 200 μl of 60% on abdominal skin
# Method: Briefly, the Bond-Elute cartridges were activated by washing with two ml of HPLC grade acetonitrile (Sigma chemicals Co., St. Louis, Mo.) followed by two ml of deionized, degassed filtered water. A low vacuum (<0.5 in Hg) was applied for the wash using a Vac-Elute manifold (Varian Analytical Supplies Co.). […] Hg). The cartridge was then washed with three mls. of acetonitrile-ammoniumacetate (pH 4.5, 0.03 M, at 40:60 V:V) under low vacuum (<0.5 in. Hg). The eluant was then injected directly onto columns (ODS-1, 250×4.6 mm, Alltech Co., Deerfield, Ill.) for HPLC analysis (Waters, Division of Millipore, Milford, Mass.). Chromatographic conditions used for HPLC analysis is as follows: Mobil phase: acetonitrile-ammoniumacetate (pH 4.5, 0.03M, at 36:64 v:v), flow rate 1.0 ml/min, UV detection at 220 nm. Sensitivity was set at 0.01AUFS. […].
# Dermacetor variabilis = test: Tick attachment to rabbit ear, Dermacetor variabilis; assay type: in vivo
# Method: To determine the effect of DEET on tick attachment and feeding we used two species of ticks Amblyoma americanum and Dermacetor variabilis purchased from University of Oklahoma. Ticks were allowed to feed on the ears of male New Zealand white rabbits purchased from Charles River. For feeding, five ticks were introduced into a 60 μm sieve cell well (Fisher Scientific) which was attached to the ear of the rabbit with nail glue. Ticks were observed every 30 minutes for the first eight hours to assess skin attachment and feeding behavior. Tick attachment was defined as the minimum time required for 3 of the 5 ticks to attach to the ear. […] The observation was continued for 72 hours for both species of ticks. Separate rabbits were used for each species and for each treatment. […] All the ticks in this study were active until attachment.
# In this series of experiments, the protective effect(s) of different concentrations of DEET and Lipodeet on the attachment of nymphs and adults of two species of ticks, A. americanum and D. variabilis, to the rabbit ear was evaluated. Experiments were set up wherein different concentrations (20% or 40% of DEET or Lipodeet were applied (0.2 ml of the samples to 10 cm^2 surface area), onto the dorsal side of the ear lobes of a rabbit. After allowing the preparation to dry for 30 min., sieve cups (Fisher Scientific, 1″ inner diameter) were then attached to the ear lobes using nail glue. Ten nymphs or five adult ticks were then introduced into the sieve cups every 24 hrs through a small slit made on the sieve membrane. Attachment of ticks to the skin was monitored every 24 hrs. for up to 72 hrs. after introduction of the ticks.
# More than 60% of ticks used in our experiments were dead after contact with Lipodeet. Although a well-aerated sieve cup was used (1″ inner diameter), we initially thought that the tick mortality may be due to possible DEET vapor trapped within the sieve cup. Therefore, we designed experiments where one half of the surface area of skin within the sieve cup was treated with 40% Lipodeet and the other half was left untreated. Five adults ticks of A. americanum were then introduced into the sieve cups every 24 hrs. After 72 hrs., the sieve cups were removed.
smiles,measurement,setting,value
"CCN(CC)C(=O)c1cccc(C)c1 [DEET, N,N-diethyl-m-toluamide]",time to immobilize all the cercariae,[1]; DEET 7.5%,≤ 5 min
same,cercariae dead,"[1]; DEET 7.5%, by 4 hours",100%
same,immobilization of cercariae,[1]; DEET at concentrations of 15% and above,immediately immobilized
same,cercariae dead (neutral red staining),"[1]; DEET at concentrations of 15% and above, 30 minutes",100%
same,immobilizing or killing of cercariae,[1]; concentrations below 7.5% of DEET,less effective in immobilizing or killing cercariae
same,ultrastructural changes of cercariae,"cercariae of S. mansoni; 7.5% DEET, evident as early as five minutes post-exposure",ultrastructural changes of two types were observed
same,lysis of cercariae,cercariae of S. mansoni; 240 min after exposure to DEET,Frank lysis of cercariae
same,DEET present in the plasma,[2]; 15 min,11.6 mg
same,"DEET present in the plasma, percent",[2]; 15 min,9.7%
same,DEET present in the plasma,[2]; 30 min,5.3 mg
same,"DEET present in the plasma, percent",[2]; 30 min,4.4%
same,DEET present in the plasma,[2]; 60 min,~0.182 mg
same,"DEET present in the plasma, percent",[2]; 60 min,0.15%
same,initial time with no tick attachment,"Dermacetor variabilis; 10% DEET on rabbit ear, normal rabbits 4.5 hours",7.0 h
same,time effective in preventing attachment of adult ticks,"Dermacetor variabilis; 20%, adults",up to 24 hrs
same,time effective in preventing attachment of nymphs,"Dermacetor variabilis; 20%, nymphs",up to 48 hrs
same,"effect of raising concentration, adult ticks","Dermacetor variabilis; 40% versus 20%, adults",slightly more effective at 48 hrs
same,"effect of raising concentration, nymphs","Dermacetor variabilis; 40% versus 20%, nymphs",no added advantage against nymphs
